According to patent US5235061A, “Fungicidal (1H-1,2,4-triazolyl)disilaalkanes” (priority 1991, dated 1993):

Columns and labels:
Assay in all cases: In vitro percent disease control (radii of spore growth on agar)
Format in all cases: cell-based
Physalospora baccae = settings: for inhibition of growth at 50 ppm / inhibition of growth at 100 ppm: read-out: % controlled, Phy ba.
How it was run: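 Compounds at 100 and 50 ppm (10% acetone) mixed into potato-sucrose-agar, fungus spotted centrally and grown several days in a growth room. Percent disease control derived from radii of spore growth.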

Pyricalaria oryzae = settings: for inhibition of growth at 50 ppm: read-out: % controlled, Py. or., 50 ppm; for inhibition of growth at 100 ppm: read-out: % controlled, Py. or., 100 ppm
How it was run: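 Compounds at 100 ppm and 50 ppm (10% acetone in water) mixed into potato-sucrose-agar, P. oryzae spotted centrally and incubated several days. Percent disease control derived from radii of spore growth.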

Phytophthora capsisi = settings: for inhibition of growth at 50 ppm / inhibition of growth at 100 ppm: Phytophthora, read-out: % controlled, Phy ca.
How it was run: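 Compounds dissolved in acetone (10% of final volume) then water at 100 ppm and 50 ppm, mixed into potato-sucrose-agar; fungus spotted at plate centre and incubated several days. Percent disease control derived from radii of spore growth.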

Botry tris cinerea = settings: for inhibition of growth at 50 ppm / inhibition of growth at 100 ppm: read-out: % controlled, Bo ci.
How it was run: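 Compounds at 100 and 50 ppm (acetone 10% of final volume, rest water) mixed into potato-sucrose agar; Botrytis cinerea spotted at dish centre. After several days' incubation, percent disease control calculated from radii of spore growth.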

Alternaria mali = settings: for inhibition of growth at 50 ppm / inhibition of growth at 100 ppm: Alternaria mali, read-out: % controlled, Al.
How it was run: (§1)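 Compounds in acetone (10% of final volume) diluted with water to 100 and 50 ppm, then mixed into potato-sucrose-agar with each fungus spotted centrally. Incubated several days in a growth room; percent disease control derived from radii of spore growth.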

Rhizopus sp. = settings: for inhibition of growth at 50 ppm / inhibition of growth at 100 ppm: Rhizopus, read-out: % controlled, Rhi. sp.
How it was run: as §1

Rhizoctonia solani = settings: for inhibition of growth at 50 ppm / inhibition of growth at 100 ppm: Rhizoctonia solani, read-out: % controlled, Rhy. so.
How it was run: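 Test compounds at 100 ppm and 50 ppm (acetone 10% of final volume, then water) were mixed into potato-sucrose-agar, and the fungus was spotted at the dish centre. Dishes were incubated several days in a growth room. Percent disease control was derived from the radii of spore growth.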

Fusarium moniliforme = tested on: Fusarium moniliforme
How it was run: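 Compounds in 10% acetone/water at 100 and 50 ppm were mixed into potato-sucrose-agar, with Fusarium moniliforme spotted centrally. After several days' incubation, percent disease control was derived from radii of spore growth.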

Glomerella cingulata = settings: for inhibition of growth at 50 ppm / inhibition of growth at 100 ppm: Colletotrichum gloeosporioides, read-out: % controlled, Glo.
How it was run: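 Compounds were dissolved in acetone (10% of final volume) plus water at 100 ppm and 50 ppm and mixed into potato-sucrose agar. G. cingulata was spotted centrally and incubated for several days in a growth room. Percent disease control was derived from the radii of spore growth.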

[1] = tested on: Botryosphaeria dothidea Macrophoma sp.; settings: for inhibition of growth at 50 ppm / inhibition of growth at 100 ppm: Botryosphaeria dothidea, read-out: % controlled, Bo.do (Ma.)
How it was run: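 Compounds (100 and 50 ppm, 10% acetone in water) were mixed into potato-sucrose-agar and the fungus was spotted centrally, then incubated several days in a growth room. Percent disease control came from radii of spore growth.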

| Compound | inhibition of growth at 50 ppm (Physalospora baccae; 50 ppm) [%] | inhibition of growth at 100 ppm (Physalospora baccae; 100 ppm) [%] | inhibition of growth at 50 ppm (Pyricalaria oryzae) [%] | inhibition of growth at 100 ppm (Pyricalaria oryzae) [%] | inhibition of growth at 50 ppm (Phytophthora capsisi; 50 ppm) [%] | inhibition of growth at 100 ppm (Phytophthora capsisi; 100 ppm) [%] | inhibition of growth at 50 ppm (Botry tris cinerea; 50 ppm) [%] | inhibition of growth at 100 ppm (Botry tris cinerea; 100 ppm) [%] | inhibition of growth at 50 ppm (Alternaria mali; 50 ppm) [%] | inhibition of growth at 100 ppm (Alternaria mali; 100 ppm) [%] | inhibition of growth at 50 ppm (Rhizopus sp.; 50 ppm) [%] | inhibition of growth at 100 ppm (Rhizopus sp.; 100 ppm) [%] | inhibition of growth at 50 ppm (Rhizoctonia solani; 50 ppm) [%] | inhibition of growth at 100 ppm (Rhizoctonia solani; 100 ppm) [%] | % controlled, Fu. mo. (Fusarium moniliforme; 50 ppm) [%] | % controlled, Fu. mo. (Fusarium moniliforme; 100 ppm) [%] | inhibition of growth at 50 ppm (Glomerella cingulata; 50 ppm) [%] | inhibition of growth at 100 ppm (Glomerella cingulata; 100 ppm) [%] | inhibition of growth at 50 ppm ([1]; 50 ppm) [%] | inhibition of growth at 100 ppm ([1]; 100 ppm) [%] | further results |
| --- | --- | --- | --- | --- | --- | --- | --- | --- | --- | --- | --- | --- | --- | --- | --- | --- | --- | --- | --- | --- | --- |
| C[Si](C)(C[Si](C)(Cn1cncn1)c1ccc(F)cc1)c1ccc(Cl)cc1 (stereo not shown) [4-(4-chlorophenyl)-2-(4-fluorophenyl)-2,4-dimethyl-2,4-disila-1-(1H-1,2,4-triazol-1-yl)pentane] | 78 | 82 | 100 | 100 | 43 | 54 | 100 | 100 | 84 | 84 | 59 | 65 | 93 | 100 | 67 | 69 | 0 | 0 | 74 | 86 |  |
| CCOc1ccc([Si](Cn2cncn2)(C[Si](C)(C)c2ccc(F)cc2)c2ccc(OCC)cc2)cc1 [2,2-bis(4-ethoxyphenyl)-4-(4-fluorophenyl)-4-methyl-2,4-disila-1-(1H-1,2,4-triazol-1-yl)pentane] | 53 | 74 | 100 | 100 | 50 | 60 | 69 | 66 | 63 | 72 | 19 | 43 | 78 | 78 | 58 | 63 | 71 | 77 | 74 | 78 |  |
| C=CC[Si](C[Si](CC)(Cn1cncn1)c1ccc(OCC)cc1)(c1ccc(F)cc1)c1ccc(F)cc1 (stereo not shown) [6-(4-ethoxyphenyl)-4,4-bis(4-fluorophenyl)-6-ethyl-4,6-disila-7-(1H-1,2,4-triazol-1-yl)-1-heptane] |  |  |  |  |  |  |  |  |  |  |  |  |  |  | 90 | 90 |  |  |  |  | % controlled, Phy ba. (Physalospora baccae; 50 ppm): 60%; % controlled, Phy ba. (Physalospora baccae; 100 ppm): 75%; % controlled, Py. or. (Pyricalaria oryzae; 50 ppm): 70%; % controlled, Py. or. (Pyricalaria oryzae; 100 ppm): 75%; % controlled, Phy ca. (Phytophthora capsisi; 50 ppm): 80%; % controlled, Phy ca. (Phytophthora capsisi; 100 ppm): 90%; % controlled, Bo ci. (Botry tris cinerea; 50 ppm): 60%; % controlled, Bo ci. (Botry tris cinerea; 100 ppm): 60%; % controlled, Al. (Alternaria mali; 50 ppm): 100%; % controlled, Al. (Alternaria mali; 100 ppm): 100%; % controlled, Rhi. sp. (Rhizopus sp.; 50 ppm): 80%; % controlled, Rhi. sp. (Rhizopus sp.; 100 ppm): 90%; % controlled, Rhy. so. (Rhizoctonia solani; 50 ppm): 100%; % controlled, Rhy. so. (Rhizoctonia solani; 100 ppm): 100%; % controlled, Glo. (Glomerella cingulata; 50 ppm): 80%; % controlled, Glo. (Glomerella cingulata; 100 ppm): 80%; % controlled, Bo.do (Ma.) ([1]; 50 ppm): 65%; % controlled, Bo.do (Ma.) ([1]; 100 ppm): 69% |
| C=CC[Si](C)(Cn1cncn1)C[Si](CC=C)(c1ccccc1)c1ccc(F)cc1 (stereo not shown) [6-(4-fluorophenyl)-4-methyl-6-phenyl-4,6-disila-4-(1H-1,2,4-triazol-1-ylmethyl)-1,8-nonadiene] | 82 | 82 | 90 | 90 | 65 | 70 | 60 | 70 | 55 | 92 | 50 | 50 | 96 | 96 | 60 | 66 | 80 | 85 | 79 | 79 |  |
| C[Si](C)(C[Si](C)(Cn1cncn1)c1ccc(Cl)cc1)c1ccc(Cl)cc1 (stereo not shown) [2,4-bis(4-chlorophenyl)-2,4-dimethyl-2,4-disila-1-(1H-1,2,4-triazol-1-yl)pentane] | 34 | 37 | 27 | 27 | 16 | 22 | 33 | 41 | 54 | 69 | 31 | 40 | 28 | 42 | 48 | 57 | 70 | 76 | 80 | 82 |  |
| C[Si](C)(Cc1ccc(F)cc1)C[Si](C)(Cn1cncn1)c1ccc(F)cc1 (stereo not shown) [4-(4-fluorobenzyl)-2-(4-fluorophenyl)-2,4-dimethyl-2,4-disila-1-(1H-1,2,4-triazol-1-yl)pentane] | 26 | 30 | 50 | 57 | 3 | 3 | 0 | 0 | 38 | 43 | 21 | 24 | 36 | 36 | 34 | 41 | 0 | 0 | 40 | 49 |  |
| C[Si](C)(C[Si](Cn1cncn1)(c1ccc(F)cc1)c1ccc(F)cc1)c1ccc(-c2ccccc2)cc1 [2,2-bis(4-fluorophenyl)-4-(4-phenylphenyl)-4-methyl-2,4-disila-1-(1H-1,2,4-triazol-1-yl)pentane] | 28 | 32 | 54 | 57 | 6 | 9 | 18 | 23 | 46 | 46 | 29 | 29 | 65 | 67 | 41 | 41 | 71 | 73 | 47 | 49 |  |
| COc1ccc([Si](Cn2cncn2)(C[Si](C)(C)c2ccc(Cl)cc2)c2ccc(Cl)cc2)cc1 (stereo not shown) [2,4-bis(4-chlorophenyl)-2-(4-methoxyphenyl)-4-methyl-2,4-disila-1-(1H-1,2,4-triazol-1-yl)pentane] | 76 | 79 | 100 | 100 | 45 | 65 | 40 | 43 | 74 | 89 | 46 | 50 | 90 | 92 | 42 | 48 | 76 | 87 | 75 | 79 |  |
